Laboratory results taken from patent publication US11465983B2, “USP7 inhibitors for treating multiple myeloma” (Dana-Farber Cancer Institute, Inc., priority 2017, dated 2022).

How the values were obtained:
USP7 [1] = molecular target: T1, USP7 (Homo sapiens, UniProt Q93009); test: Isothermal titration calorimetry, binding affinity of protein/ligand; parameters: made in house; host or cells: E. coli BL21 (DE3); conditions: ITC at 20° C.
Experimental: The binding affinity of protein/ligand was measured by adding 0.02 mM protein in cell and titrating with 0.2 mM ligand in the syringe using an Auto-ITC200 microcalorimeter (Malvern) at 20° C. (FIG. 2C). Proteins and ligands were prepared within ITC buffer containing 20 mM HEPES pH 7.5, 150 mM NaCl, and 2% DMSO. The data were fit using Origin 7.0 software.
Target sequence in this assay (Q93009 whole entry): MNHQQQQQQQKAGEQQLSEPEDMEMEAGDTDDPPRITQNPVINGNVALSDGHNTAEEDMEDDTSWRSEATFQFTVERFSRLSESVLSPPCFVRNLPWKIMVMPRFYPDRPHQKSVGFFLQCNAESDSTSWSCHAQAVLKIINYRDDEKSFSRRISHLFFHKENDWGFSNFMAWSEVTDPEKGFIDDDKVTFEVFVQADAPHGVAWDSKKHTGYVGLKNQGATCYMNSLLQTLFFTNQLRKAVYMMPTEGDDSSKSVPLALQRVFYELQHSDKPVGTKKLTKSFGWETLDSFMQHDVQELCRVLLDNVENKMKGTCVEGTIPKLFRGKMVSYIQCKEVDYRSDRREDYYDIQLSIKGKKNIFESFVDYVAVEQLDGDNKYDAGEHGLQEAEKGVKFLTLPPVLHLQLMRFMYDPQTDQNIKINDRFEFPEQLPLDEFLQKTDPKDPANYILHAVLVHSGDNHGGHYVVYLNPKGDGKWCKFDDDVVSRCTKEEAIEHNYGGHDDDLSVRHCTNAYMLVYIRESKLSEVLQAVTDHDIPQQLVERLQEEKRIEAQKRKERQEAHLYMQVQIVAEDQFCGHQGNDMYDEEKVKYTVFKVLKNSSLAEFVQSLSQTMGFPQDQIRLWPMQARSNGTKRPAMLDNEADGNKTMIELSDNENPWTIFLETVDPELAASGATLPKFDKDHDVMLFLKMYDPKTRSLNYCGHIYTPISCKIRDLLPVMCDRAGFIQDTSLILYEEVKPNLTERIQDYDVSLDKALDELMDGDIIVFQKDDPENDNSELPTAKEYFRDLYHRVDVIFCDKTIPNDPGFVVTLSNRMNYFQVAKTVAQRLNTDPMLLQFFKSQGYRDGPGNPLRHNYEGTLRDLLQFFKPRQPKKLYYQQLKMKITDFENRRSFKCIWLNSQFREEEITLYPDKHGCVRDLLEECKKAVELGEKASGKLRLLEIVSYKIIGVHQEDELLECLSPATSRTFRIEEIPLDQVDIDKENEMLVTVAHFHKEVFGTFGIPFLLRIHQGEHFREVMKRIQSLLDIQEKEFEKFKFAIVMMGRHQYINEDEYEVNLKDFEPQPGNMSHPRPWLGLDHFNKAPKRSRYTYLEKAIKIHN

USP7 [2] = molecular target: T1, USP7; test: Ub-AMC assay (USP7 assay); format: biochemical; parameters: fused on or other part: His tag from pET28aLIC; removed by thrombin for the catalytic domain, no removal step given for the full length; conditions: USP7 assay
Experimental: USP7 and mutants were tested for their activity in Ubiquitin-AMC assay in presence or absence of inhibitors. […] For the same assay USP7 full length WT and Q351 mutant were used at 50 nM. […] The reaction was incubated 30 min at room temperature prior to the addition of 2 uM Ubiquitin-AMC (Boston Biochem) substrate. […] The calculated initial rate values were plotted against inhibitor concentrations to determine IC50s. All the experimental data were plotted using Prism GraphPad. FIG. 2A illustrates the structure guided optimization for the inhibition of USP7.
ND refers to not disclosed.
Target sequence in this assay (Q93009 208-560 limits assumed): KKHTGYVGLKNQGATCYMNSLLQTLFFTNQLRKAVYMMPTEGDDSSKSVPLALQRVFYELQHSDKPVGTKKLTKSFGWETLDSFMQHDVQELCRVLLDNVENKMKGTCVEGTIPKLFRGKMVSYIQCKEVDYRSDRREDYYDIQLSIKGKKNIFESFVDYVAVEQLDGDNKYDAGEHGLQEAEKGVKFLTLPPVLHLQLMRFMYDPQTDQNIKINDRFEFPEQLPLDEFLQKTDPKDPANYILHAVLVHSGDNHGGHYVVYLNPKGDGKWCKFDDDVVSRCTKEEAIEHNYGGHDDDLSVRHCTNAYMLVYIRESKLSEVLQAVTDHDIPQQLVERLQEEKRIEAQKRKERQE

[3] = tested on: HDM2, p53 and p21 protein levels in MCF7 cells; test: Immunoblot of HDM2, p53 and p21 protein levels in treated cells; format: cell-based; conditions: 16 hours, FIG. 6A
Experimental: MCF7 and MM.1S were grown in RPMI supplemented with 10% Fetal Bovine serum (FBS) and antibiotics. Cells were treated with DMSO or different concentrations of compounds 10 and 11 for 6 (MM1S) or 16 (MCF7) hours in presence or absence of cycloheximide. For the experiments in which cycloheximide was used, cells were treated with compounds for 4 (MM1S) or 14 (MCF7) hours prior to the addition of 50 ug/ml of cycloheximide. At 6 or 16 h time point cells were washed in PBS and lysed in modified RIPA buffer (1% Triton X-100, 1% sodium deoxycholate, 0.1% SDS, 20 mM Tris, 150 mM NaCl, 1 mM EDTA) containing phosphatase inhibitor cocktails 1 and 2 (Sigma), and protease inhibitors. Protein concentrations were quantified using the BCA protein assay kit (Pierce) and samples were probed by immunoblotting using mdm2 (santa cruz sc-965), p53 (cell signaling 9282), p21 (cell signaling 2947), GAPDH (cell signaling 2118), USP7 (cell signaling 4833) antibodies (FIGS. 6A-D).

## O=C(Cc1ccccc1)N1CCC(O)(Cn2cnc3cc(Cl)ccc3c2=O)CC1 [Compound 7, 7-Chloro-3-((4-hydroxy-1-(2-phenylacetyl)piperidin-4-yl)methyl)quinazolin-4(3H)-one]
USP7 [1]; 0.02 mM protein, 0.2 mM ligand
  Kd (μM): No binding
USP7 [2]
  IC50: > 10 µM

## CC(CC(=O)N1CCC(O)(Cn2cnc3cc(Cl)ccc3c2=O)CC1)c1ccccc1 (stereo not drawn) [Compound 8, 7-Chloro-3-((4-hydroxy-1-(3-phenylbutanoyl)piperidin-4-yl)methyl)quinazolin-4(3H)-one]
USP7 [1]
  DH: -3.9 kcal/mol
  DS (cal/mol•K): 13.1 cal/mol•K
  n (stoichiometry): 2.46
USP7 [1]; 0.02 mM protein, 0.2 mM ligand
  Kd: 1.84 µM
USP7 [2]
  IC50: < 0.2 µM

## C[C@@H](CC(=O)N1CCC(O)(Cn2cnc3cc(Cl)ccc3c2=O)CC1)c1ccccc1 [Compound 9, (S)-7-Chloro-3-((4-hydroxy-1-(3-phenylbutanoyl)piperidin-4-yl)methyl)quinazolin-4(3H)-one]
USP7 [1]
  DH: -13.5 kcal/mol
  DS (cal/mol•K): −17.3 cal/mol•K
  n (stoichiometry): 0.96
USP7 [1]; 0.02 mM protein, 0.2 mM ligand
  Kd: 0.797 µM
USP7 [2]
  IC50: < 0.2 µM

## C[C@H](CC(=O)N1CCC(O)(Cn2cnc3cc(NC(=O)CCN4CCN(C)CC4)ccc3c2=O)CC1)c1ccccc1 [Compound 10, (R)—N-(3-((4-Hydroxy-1-(3-phenylbutanoyl)piperidin-4-yl)methyl)-4-oxo-3,4-dihydroquinazolin-7-yl)-3-(4-methylpiperazin-1-yl)propanamide]
USP7 [1]
  DH: -15.1 kcal/mol
  n (stoichiometry): 1.06
USP7 [1]; 0.02 mM protein, 0.2 mM ligand
  Kd: 0.104 µM
USP7 [2]
  IC50: < 0.2 µM
[3]
  HDM2, p53 and p21 protein levels: promotes loss HDM2 and accumulation of p53 and p21

## O=C([C@H]1C[C@@H]1c1ccccc1)N1CCC(O)(Cn2cnc3cc(Cl)ccc3c2=O)CC1 [Compound 75]
USP7 [2]
  IC50: > 10 µM

## CC(C)(C)C(=O)N1CCC(O)(Cn2cnc3cc(Cl)ccc3c2=O)CC1 [Compound 76]
USP7 [2]
  IC50: > 10 µM

## O=c1c2ccc(Cl)cc2ncn1CC1(O)CCN(c2cccnc2)CC1 [Compound 77]
USP7 [2]
  IC50: > 10 µM

## O=c1c2ccc(Cl)cc2ncn1CC1(O)CCN(c2ccc([N+](=O)[O-])cn2)CC1 [Compound 78]
USP7 [2]
  IC50: > 10 µM

## CN(CC(=O)N1CCC(O)(Cn2cnc3cc(Cl)ccc3c2=O)CC1)c1ccccc1 [Compound 79]
USP7 [2]
  IC50: > 10 µM

## CCN(CC(=O)N1CCC(O)(Cn2cnc3cc(Cl)ccc3c2=O)CC1)c1ccccc1 [Compound 80]
USP7 [2]
  IC50: > 10 µM

## O=C(C1Cc2ccccc2C1)N1CCC(O)(Cn2cnc3cc(Cl)ccc3c2=O)CC1 [Compound 81]
USP7 [2]
  IC50: > 10 µM

## O=C(CC(c1ccccc1)c1ccccc1)N1CCC(O)(Cn2cnc3cc(Cl)ccc3c2=O)CC1 [Compound 82]
USP7 [2]
  IC50: 1 to 10 µM

## O=c1c2ccc(Cl)cc2ncn1CC1(O)CCN(c2cc([N+](=O)[O-])ccn2)CC1 [Compound 83]
USP7 [2]
  IC50: > 10 µM

## O=C(NCCCC(=O)N1CCC(O)(Cn2cnc3cc(Cl)ccc3c2=O)CC1)c1ccc2c(Cl)c3c(nc2c1)CCCC3 [Compound 84]
USP7 [2]
  IC50: 1 to 10 µM

## O=C(NCCCn1cnc2cc(Cl)ccc2c1=O)c1ccc2c(Cl)c3c(nc2c1)CCCC3 [Compound 85]
USP7 [2]
  IC50: > 10 µM

## CC(=O)Nc1ccc2c(=O)n(CC3(O)CCN(C(=O)CC(C)c4ccccc4)CC3)cnc2c1 (stereo not drawn) [Compound 86]
USP7 [2]
  IC50: 0.2 to 1 µM

## COc1ccccc1CCC(=O)N1CCC(O)(Cn2cnc3cc(Cl)ccc3c2=O)CC1 [Compound 87]
USP7 [2]
  IC50: > 10 µM

## O=C(CC1c2ccccc2-c2ccccc21)N1CCC(O)(Cn2cnc3cc(Cl)ccc3c2=O)CC1 [Compound 88]
USP7 [2]
  IC50: > 10 µM

## Cc1cccc(CCC(=O)N2CCC(O)(Cn3cnc4cc(Cl)ccc4c3=O)CC2)c1 [Compound 89]
USP7 [2]
  IC50: > 10 µM

## CNC(=O)c1ccc2c(Cl)c3c(nc2c1)CCCC3 [Compound 90]
USP7 [2]
  IC50: > 10 µM

## CC(C)C(Cc1ccccc1)C(=O)N1CCC(O)(Cn2cnc3cc(Cl)ccc3c2=O)CC1 (stereo not drawn) [Compound 91]
USP7 [2]
  IC50: 0.2 to 1 µM

## COC(Cc1ccccc1)C(=O)N1CCC(O)(Cn2cnc3cc(Cl)ccc3c2=O)CC1 (stereo not drawn) [Compound 92]
USP7 [2]
  IC50: 1 to 10 µM

## CC(C(=O)N1CCC(O)(Cn2cnc3cc(Cl)ccc3c2=O)CC1)C(C)c1ccccc1 (stereo not drawn) [Compound 93]
USP7 [2]
  IC50: 1 to 10 µM

## CCC(Cc1ccccc1)C(=O)N1CCC(O)(Cn2cnc3cc(Cl)ccc3c2=O)CC1 (stereo not drawn) [Compound 94]
USP7 [2]
  IC50: 1 to 10 µM

## O=C(C(Cc1ccccc1)c1ccccc1)N1CCC(O)(Cn2cnc3cc(Cl)ccc3c2=O)CC1 (stereo not drawn) [Compound 95]
USP7 [2]
  IC50: > 10 µM

## O=C(NCC(=O)N1CCC(O)(Cn2cnc3cc(Cl)ccc3c2=O)CC1)c1ccc2c(Cl)c3c(nc2c1)CCCC3 [Compound 96]
USP7 [2]
  IC50: > 10 µM

## O=C(CCc1ccc2c(Cl)c3c(nc2c1)CCCC3)NCCC(=O)N1CCC(O)(Cn2cnc3cc(Cl)ccc3c2=O)CC1 [Compound 97]
USP7 [2]
  IC50: > 10 µM

## O=C(NCCCCC(=O)N1CCC(O)(Cn2cnc3cc(Cl)ccc3c2=O)CC1)c1ccc2c(Cl)c3c(nc2c1)CCCC3 [Compound 98]
USP7 [2]
  IC50: 0.2 to 1 µM

## O=C(N[C@@H](Cc1ccccc1)C(=O)N1CCC(O)(Cn2cnc3cc(Cl)ccc3c2=O)CC1)c1ccc2c(Cl)c3c(nc2c1)CCCC3 [Compound 99]
USP7 [2]
  IC50: 1 to 10 µM

## O=C(NCCCC(=O)N1CCC(Cn2cnc3cc(Cl)ccc3c2=O)CC1)c1ccc2c(Cl)c3c(nc2c1)CCCC3 [Compound 100]
USP7 [2]
  IC50: > 10 µM

## C[C@H](CC(=O)N1CCC(O)(Cn2cnc3cc(N)ccc3c2=O)CC1)c1ccccc1 [Compound 101]
USP7 [2]
  IC50: 0.2 to 1 µM

## CC(=O)Nc1ccc2c(=O)n(CC3(O)CCN(C(=O)C[C@@H](C)c4ccccc4)CC3)cnc2c1 [Compound 102]
USP7 [2]
  IC50: 0.2 to 1 µM

## C[C@H](CC(=O)N1CCC(O)(Cn2cnc3c(N)cccc3c2=O)CC1)c1ccccc1 [Compound 103]
USP7 [2]
  IC50: 1 to 10 µM

## CC(C)(C)C(=O)Nc1ccc2c(=O)n(CC3(O)CCN(C(=O)CCc4ccccc4)CC3)cnc2c1 [Compound 105]
USP7 [2]
  IC50: > 10 µM

## O=C(CCc1ccccc1)N1CCC(O)(Cn2cnc3cc(Cl)ccc3c2=O)CC1 [Compound A, reference compound]
USP7 [1]
  DH: -5.4 kcal/mol
  DS (cal/mol•K): 5.3 cal/mol•K
  n (stoichiometry): 0.98
USP7 [1]; 0.02 mM protein, 0.2 mM ligand
  Kd: 7.61 µM
